Laboratory results as given in US9849191B2, “Protein-polymer-drug conjugates” (MERSANA THERAPEUTICS, INC., priority 2013, dated 2017).
Non-standard residues stand in square brackets, D forms with d. Residues, ends and D or L forms follow the SMILES beside them. *: point of attachment. Dolaproine = CO[C@@H]([C@@H]1CCCN1)[C@@H](C)C(=O)O; Dil = CC[C@H](C)[C@H](NC)[C@@H](CC(=O)O)OC; NMe2Val = CC(C)[C@@H](C(=O)*)N(C)C; NH(3-hydroxypropyl) = OCCCN*

Assay: Tolerability of Auristatin F-hydroxypropylamide (MTD study)
Type: in vivo, mice
Details: n=6
Source text: The vehicle control group received physiological saline.

SMILES: CC[C@H](C)[C@@H]([C@@H](CC(=O)N1CCC[C@H]1[C@H](OC)[C@@H](C)C(=O)N[C@@H](Cc1ccccc1)C(=O)NCCCO)OC)N(C)C(=O)[C@@H](NC(=O)[C@H](C(C)C)N(C)C)C(C)C [AF-HPA, auristatin F hydroxypropyl amide] (NMe2Val-V[Dil][Dolaproine]F-{NH(3-hydroxypropyl)})
- Mortality or morbidity (3.2 mg/kg single IV dose): 1 animal died on day 7, 3
- Mortality or morbidity (4.7 mg/kg single IV dose): 1 animal died on Day 3, 1
